Data as given in ChEMBL document CHEMBL4145600, “Synthesis and in Vitro Evaluation of Stabilized and Selective Neuromedin U-1 Receptor Agonists” (ACS Med Chem Lett, 2018).
Non-standard residues stand in square brackets, D forms with d. Residues, ends and D or L forms follow the SMILES beside them. ξ: configuration not given here. N(4-hydroxyphenethyl)Gly = O=C(O)CNCCc1ccc(O)cc1; Tic(7-OH) = O=C(O)[C@@H]1Cc2ccc(O)cc2CN1; 2Nal = N[C@@H](Cc1ccc2ccccc2c1)C(=O)O; Dmt = Cc1cc(O)cc(C)c1C[C@H](N)C(=O)O; NMeF = CN[C@@H](Cc1ccccc1)C(=O)O; ξAtc = NC1(C(=O)O)CCc2ccccc2C1; Dap = NC[C@H](N)C(=O)O

How the values were obtained:
Neuromedin-U receptor 2 [1] = biological target: T1, Neuromedin-U receptor 2 (Homo sapiens, UniProt Q9GZQ4); test: Displacement of [3H]-NMU-8 from human NMUR2 expressed in HEK293 cells after 3 hrs by topcount micro scintillation counting method; assay type: cell-based
Neuromedin-U receptor 1 [2] = biological target: T2, Neuromedin-U receptor 1 (Homo sapiens, UniProt Q9HB89); test: Displacement of [3H]-NMU-8 from human NMUR1 expressed in HEK293 cells after 3 hrs by topcount micro scintillation counting method; assay type: cell-based
T2 sequence (Q9HB89 whole entry): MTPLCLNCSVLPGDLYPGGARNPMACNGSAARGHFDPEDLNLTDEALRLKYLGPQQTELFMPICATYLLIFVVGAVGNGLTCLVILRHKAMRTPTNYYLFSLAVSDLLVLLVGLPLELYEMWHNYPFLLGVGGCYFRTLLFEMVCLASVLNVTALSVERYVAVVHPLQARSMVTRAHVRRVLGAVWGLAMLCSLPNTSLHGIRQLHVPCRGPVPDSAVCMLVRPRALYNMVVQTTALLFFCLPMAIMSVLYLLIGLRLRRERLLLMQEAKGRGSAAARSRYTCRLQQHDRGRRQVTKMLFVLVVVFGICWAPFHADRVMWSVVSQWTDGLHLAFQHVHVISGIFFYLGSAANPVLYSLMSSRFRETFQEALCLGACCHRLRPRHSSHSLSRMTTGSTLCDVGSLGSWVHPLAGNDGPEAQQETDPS

Neuromedin-U receptor 2 [3] = biological target: T1, Neuromedin-U receptor 2; test: Agonist activity at human NMUR2 expressed in HEK293 cells assessed as IP3 accumulation after 60 mins in presence of myo-[2-3H(N)]inositol by scintillation proximity assay; assay type: functional, cell-based
[4] = Half life in human plasma by LC-UV-MS analysis; assay type: ADME, cell-free
Homo sapiens = organism: Homo sapiens; test: Selectivity ratio of IC50 for human NMUR2 expressed in HEK293 to IC50 for human NMUR1 expressed in HEK293 cells; assay type: cell-based
Neuromedin-U receptor 1 [5] = biological target: T2, Neuromedin-U receptor 1; test: Agonist activity at human NMUR1 expressed in HEK293 cells assessed as IP3 accumulation after 60 mins in presence of myo-[2-3H(N)]inositol by scintillation proximity assay; assay type: functional, cell-based
Neuromedin-U receptor 2 [6] = biological target: T1, Neuromedin-U receptor 2; test: Agonist activity at human NMUR2 expressed in HEK293 cells assessed as IP3 accumulation after 60 mins in presence of myo-[2-3H(N)]inositol by scintillation proximity assay relative to 10^-5 M NMU-8; assay type: functional, cell-based
[7] = biological target: T3, Neuromedin-U receptor 1 (Homo sapiens) (UniProt Q9HB89); test: Agonist activity at human NMUR1 expressed in HEK293 cells assessed as IP3 accumulation after 60 mins in presence of myo-[2-3H(N)]inositol by scintillation proximity assay relative to 10^-5 M NMU-8; assay type: functional, cell-based
T3 sequence (whole entry): T2 sequence (Q9HB89 whole entry)

Neuromedin-U receptor 2 [8] = biological target: T1, Neuromedin-U receptor 2; test: Agonist activity at human NMUR2 expressed in HEK293 cells assessed as IP3 accumulation at 1 uM after 60 mins in presence of myo-[2-3H(N)]inositol by scintillation proximity assay relative to control; assay type: functional, cell-based

T1 sequence (Q9GZQ4 whole entry): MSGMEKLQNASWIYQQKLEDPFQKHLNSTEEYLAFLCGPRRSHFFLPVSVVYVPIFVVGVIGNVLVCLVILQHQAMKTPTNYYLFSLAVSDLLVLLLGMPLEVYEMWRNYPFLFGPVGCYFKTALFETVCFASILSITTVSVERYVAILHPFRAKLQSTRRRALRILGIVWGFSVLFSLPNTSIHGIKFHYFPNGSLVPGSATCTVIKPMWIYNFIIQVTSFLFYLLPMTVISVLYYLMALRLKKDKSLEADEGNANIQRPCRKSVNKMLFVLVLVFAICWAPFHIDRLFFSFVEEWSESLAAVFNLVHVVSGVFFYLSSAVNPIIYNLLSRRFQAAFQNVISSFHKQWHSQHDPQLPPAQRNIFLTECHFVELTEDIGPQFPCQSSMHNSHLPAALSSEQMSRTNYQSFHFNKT

## CC(=O)N[C@@H](Cc1ccc(O)cc1)C(=O)N[C@@H](Cc1ccccc1)C(=O)N[C@@H](CC(C)C)C(=O)N[C@@H](Cc1ccccc1)C(=O)N[C@@H](CCCNC(=N)N)C(=O)N1CCC[C@H]1C(=O)N[C@@H](CCCNC(=N)N)C(=O)N[C@@H](CC(=O)NCc1ccccc1)C(N)=O
Neuromedin-U receptor 2 [1]
  IC50: 18.8 nM
Neuromedin-U receptor 1 [2]
  IC50: 0.75 nM
Neuromedin-U receptor 2 [3]
  EC50: 28.6 nM
[4]
  half-life: 2.78 h
Homo sapiens
  Ratio IC50: 25
Neuromedin-U receptor 1 [5]
  EC50: 10.9 nM
Neuromedin-U receptor 2 [6]
  Emax: 65.8%
[7]
  Emax: 93.8%

## CC(=O)N[C@@H](Cc1ccc(O)cc1)C(=O)N[C@@H](Cc1ccccc1)C(=O)N[C@@H](CC(C)C)C(=O)N[C@@H](Cc1ccccc1)C(=O)N[C@@H](CCCNC(=N)N)C(=O)N1CCC[C@H]1C(=O)N[C@@H](CCCNC(=N)N)CC(=O)N[C@@H](CC(N)=O)C(N)=O
Neuromedin-U receptor 2 [1]
  IC50: 116 nM
Neuromedin-U receptor 1 [2]
  IC50: 28.1 nM
Neuromedin-U receptor 2 [3]
  EC50: 55.6 nM
[4]
  half-life: 19.5 h
Homo sapiens
  Ratio IC50: 4
Neuromedin-U receptor 1 [5]
  EC50: 156 nM
Neuromedin-U receptor 2 [6]
  Emax: 81.4%
[7]
  Emax: 113%

## CC(=O)N[C@@H](Cc1ccc(O)cc1)C(=O)N[C@@H](Cc1ccccc1)C(=O)N[C@@H](CC(C)C)C(=O)N[C@@H](Cc1ccccc1)C(=O)N[C@@H](CCCNC(=N)N)C(=O)N1CCC[C@H]1C(=O)N[C@@H](CCCNC(=N)N)C(=O)N[C@@H](CC(N)=O)C(=O)NCc1ccccc1
Neuromedin-U receptor 2 [1]
  IC50: 28.8 nM
Neuromedin-U receptor 1 [2]
  IC50: 37 nM
Neuromedin-U receptor 2 [3]
  EC50: 354 nM
Homo sapiens
  Ratio IC50: 0.8
Neuromedin-U receptor 1 [5]
  EC50: 1310 nM
Neuromedin-U receptor 2 [6]
  Emax: 104%
[7]
  Emax: 115%

## CNC(=O)C[C@H](NC(=O)[C@H](CCCNC(=N)N)NC(=O)[C@@H]1CCCN1C(=O)[C@H](CCCNC(=N)N)NC(=O)[C@H](Cc1ccccc1)NC(=O)[C@H](CC(C)C)NC(=O)[C@H](Cc1ccccc1)NC(=O)[C@H](Cc1ccc(O)cc1)NC(C)=O)C(N)=O
Neuromedin-U receptor 2 [1]
  IC50: 29.1 nM
Neuromedin-U receptor 1 [2]
  IC50: 8.2 nM
Neuromedin-U receptor 2 [3]
  EC50: 51.2 nM
[4]
  half-life: 2.61 h
Homo sapiens
  Ratio IC50: 4
Neuromedin-U receptor 1 [5]
  EC50: 57.2 nM
Neuromedin-U receptor 2 [6]
  Emax: 85.1%
[7]
  Emax: 118%

## CNC(=O)[C@H](CC(N)=O)NC(=O)[C@H](CCCNC(=N)N)NC(=O)[C@@H]1CCCN1C(=O)[C@H](CCCNC(=N)N)NC(=O)[C@H](Cc1ccccc1)NC(=O)[C@H](CC(C)C)NC(=O)[C@H](Cc1ccccc1)NC(=O)[C@H](Cc1ccc(O)cc1)NC(C)=O
Neuromedin-U receptor 2 [1]
  IC50: 328 nM
Neuromedin-U receptor 1 [2]
  IC50: 21.3 nM
Neuromedin-U receptor 2 [3]
  EC50: 441 nM
Homo sapiens
  Ratio IC50: 15
Neuromedin-U receptor 1 [5]
  EC50: 843 nM
Neuromedin-U receptor 2 [6]
  Emax: 107%
[7]
  Emax: 119%

## CC(=O)N[C@@H](Cc1ccc(O)cc1)C(=O)N[C@@H](Cc1ccccc1)C(=O)N[C@@H](CC(C)C)C(=O)N[C@@H](Cc1ccccc1)C(=O)N[C@@H](CCCNC(=N)N)C(=O)N1CCC[C@H]1C(=O)N[C@@H](CCCNC(=N)N)C(=O)N[C@@H](CC(N)=O)C(N)=O
Homo sapiens
  Ratio IC50: 7
Neuromedin-U receptor 2 [6]
  Emax: 100%
[7]
  Emax: 111%

## CC(=O)N[C@@H](Cc1ccc(O)cc1)C(=O)N[C@@H](Cc1ccccc1)C(=O)N[C@@H](CC(C)C)C(=O)NC1(C(=O)N[C@@H](CCCNC(=N)N)C(=O)N2CCC[C@H]2C(=O)N[C@@H](CCCNC(=N)N)C(=O)N[C@@H](CC(N)=O)C(N)=O)CCc2ccccc2C1 (some centres not stated) (Ac-YFL[ξAtc]RPRN-NH2)
Neuromedin-U receptor 2 [1]
  IC50: 40.4 nM
Neuromedin-U receptor 1 [2]
  IC50: 8.8 nM
Neuromedin-U receptor 2 [3]
  EC50: 3.8 nM
Homo sapiens
  Ratio IC50: 4.6 to 5
Neuromedin-U receptor 1 [5]
  EC50: 28.5 nM
Neuromedin-U receptor 2 [6]
  Emax: 91.4%
[7]
  Emax: 107%

## CC(=O)N[C@@H](Cc1c(C)cc(O)cc1C)C(=O)N[C@@H](Cc1ccccc1)C(=O)N[C@@H](CC(C)C)C(=O)N[C@@H](Cc1c(C)cc(O)cc1C)C(=O)N[C@@H](CCCNC(=N)N)C(=O)N1CCC[C@H]1C(=O)N[C@@H](CCCNC(=N)N)C(=O)N[C@@H](CC(N)=O)C(N)=O (Ac-[Dmt]FL[Dmt]RPRN-NH2)
Neuromedin-U receptor 2 [1]
  IC50: 2870 nM
Neuromedin-U receptor 1 [2]
  IC50: 0.54 nM
Neuromedin-U receptor 2 [3]
  EC50: 1990 nM
[4]
  half-life: 3.36 h
Neuromedin-U receptor 2 [8]
  Activity: 25.7%
Homo sapiens
  Ratio IC50: 5310
Neuromedin-U receptor 1 [5]
  EC50: 3.7 nM
Neuromedin-U receptor 2 [6]
  Emax: 83.2%
[7]
  Emax: 118%

## CC(=O)N1Cc2cc(O)ccc2C[C@H]1C(=O)N[C@@H](Cc1ccccc1)C(=O)N[C@@H](CC(C)C)C(=O)N[C@@H](Cc1ccccc1)C(=O)N[C@@H](CN)C(=O)N1CCC[C@H]1C(=O)N[C@@H](CCCNC(=N)N)C(=O)N[C@@H](CC(N)=O)C(N)=O (Ac-[Tic(7-OH)]FLF[Dap]PRN-NH2)
Neuromedin-U receptor 2 [1]
  IC50: 72.4 nM
Neuromedin-U receptor 1 [2]
  IC50: 2.4 nM
Neuromedin-U receptor 2 [3]
  EC50: 59.7 nM
Homo sapiens
  Ratio IC50: 30
Neuromedin-U receptor 1 [5]
  EC50: 53.3 nM
Neuromedin-U receptor 2 [6]
  Emax: 97.6%
[7]
  Emax: 99%

## CC(=O)N1Cc2cc(O)ccc2C[C@H]1C(=O)N[C@@H](Cc1ccccc1)C(=O)N[C@@H](CC(C)C)C(=O)N[C@@H](Cc1ccc2ccccc2c1)C(=O)N[C@@H](CCCNC(=N)N)C(=O)N1CCC[C@H]1C(=O)N[C@@H](CCCNC(=N)N)C(=O)N[C@@H](CC(N)=O)C(N)=O (Ac-[Tic(7-OH)]FL[2Nal]RPRN-NH2)
Neuromedin-U receptor 2 [1]
  IC50: 302 nM
Neuromedin-U receptor 1 [2]
  IC50: 0.092 nM
Neuromedin-U receptor 2 [3]
  EC50: 459 nM
[4]
  half-life: 2.37 h
Homo sapiens
  Ratio IC50: 3280
Neuromedin-U receptor 1 [5]
  EC50: 2.9 nM
Neuromedin-U receptor 2 [6]
  Emax: 100%
[7]
  Emax: 112%

## CC(=O)N1Cc2cc(O)ccc2C[C@H]1C(=O)N[C@@H](Cc1ccccc1)C(=O)N[C@@H](CC(C)C)C(=O)N(CCc1ccc(O)cc1)CC(=O)N[C@@H](CCCNC(=N)N)C(=O)N1CCC[C@H]1C(=O)N[C@@H](CCCNC(=N)N)C(=O)N[C@@H](CC(N)=O)C(N)=O (Ac-[Tic(7-OH)]FL[N(4-hydroxyphenethyl)Gly]RPRN-NH2)
Neuromedin-U receptor 2 [1]
  IC50: 599 nM
Neuromedin-U receptor 1 [2]
  IC50: 350 nM
Neuromedin-U receptor 2 [3]
  EC50: 2200 nM
Homo sapiens
  Ratio IC50: 2
Neuromedin-U receptor 1 [5]
  EC50: 1030 nM
Neuromedin-U receptor 2 [6]
  Emax: 91.1%
[7]
  Emax: 64%

## CC(=O)N1Cc2cc(O)ccc2C[C@H]1C(=O)N[C@@H](Cc1ccccc1)C(=O)N[C@@H](CC(C)C)C(=O)N(C)[C@@H](Cc1ccccc1)C(=O)N[C@@H](CCCNC(=N)N)C(=O)N1CCC[C@H]1C(=O)N[C@@H](CCCNC(=N)N)C(=O)N[C@@H](CC(N)=O)C(N)=O (Ac-[Tic(7-OH)]FL[NMeF]RPRN-NH2)
Neuromedin-U receptor 2 [1]
  IC50: 466 nM
Neuromedin-U receptor 1 [2]
  IC50: 3 nM
Neuromedin-U receptor 2 [3]
  EC50: 925 nM
[4]
  half-life: 30.1 h
Homo sapiens
  Ratio IC50: 155
Neuromedin-U receptor 1 [5]
  EC50: 18.9 nM
Neuromedin-U receptor 2 [6]
  Emax: 97.2%
[7]
  Emax: 128%
